Experimental data reported in patent publication EP3974434B1, “MACROLIDE DERIVATIVES, PREPARATION METHOD AND APPLICATION THEREOF” (Zhejiang Hisun Pharmaceutical Co., Ltd., priority 2019, dated 2020).

Legend:
Assay type in all cases: biochemical
[1] = biological target: T1, TRKC (Homo sapiens, UniProt Q16288); assay: HTRF KinEASE-TK kinase activity inhibition assay, TRKC; settings: ATP 50 µM
T1 construct: purchased Carna bioscience 08-197
Source text: (§1) The following method was used to determine the inhibition degrees of the compounds of the present invention on the activity of recombinant human NTRK family kinase in vitro. In this method, HTRF®KinEASE-TK tyrosine kinase kit (article number: 62TK0PEB) of Cisbio company was used, and the principle of the kit was based on time-resolved fluorescence resonance energy transfer (TF-FRET), and the inhibition of the compounds on the activity of the NTRK kinase was reflected by determining a phosphorylation degree of a biotinylated polypeptide substrate mediated by NTRK kinase. For detailed experimental operation, please refer to the kit instruction. Recombinant human wild-type NTRK proteins were purchased from Carna bioscience (the article numbers were TRKA #08-186, TRKB #08-187 and TRKC #08-197 respectively), and recombinant human mutant NTRK proteins were purchased from SignalChem (the article numbers were TRKA G595R #N16-12BG-10, TRKA G667C # N16-12CG-10, and TRKC G623R # N18-12CH-10 respectively).
(§2) The experimental methods were operated according to the steps in the kit instruction, and were briefly described as follows: a test compound was first dissolved in DMSO to prepare a storage solution, and then diluted in gradient with a buffer provided in the kit. A final concentration of the test compound in the reaction system ranged from 1,000 nM to 0.004 nM. An ATP Km value concentration of each NTRK protein was determined by using an ATP solution diluted in gradient (Sangon Biotech (Shanghai) Co., Ltd., A600311). According to the Km value obtained, the ATP concentrations in the reaction system were set as 100 µM for TRKA, 10 µM for TRKB, 50 µM for TRKC, 7 µM for TRKA(G595R), 1 µM for TRKA(G667C) and 100 µM for TRKC(G623R). The reaction was carried out in a 384-well microplate. Firstly, the compound and a certain amount of corresponding NTRK protein were added to the wells and incubated for 5 minutes to 10 minutes at room temperature. Then, the ATP solution and the biotinylated polypeptide substrate solution were added to the reaction solution and incubated with shaking at room temperature for 60 minutes. Then, an anti-phosphorylated tyrosine antibody coupled with a europium compound and streptavidin coupled with modified allophycocyanin XL665 were added to the reaction, and continuously incubated with shaking at room temperature for 1 hour. After incubation, fluorescence intensity values of each well at an excitation wavelength of 304 nm, and emission wavelengths of 620 nm and 665 nM were determined in a TF-FRET mode on a microplate reader. Compared with the fluorescence intensity ratio of a control group (0.1% DMSO), the percentage inhibition rates of the compound at each concentration were calculated, and the IC50 value of the compound was obtained by performing nonlinear regression analysis for logarithmic value of the compound concentration - inhibition rate by GraphPad Prism 5 software, which can be seen in Table 1. Table 1 IC50 data of the compounds of the present invention on TRK enzyme activity inhibition

[2] = biological target: T2, TRKA (Homo sapiens, UniProt P04629); assay: HTRF KinEASE-TK kinase activity inhibition assay, TRKA; settings: ATP 100 µM
T2 construct: purchased Carna bioscience 08-186
T2 sequence (P04629 33-796): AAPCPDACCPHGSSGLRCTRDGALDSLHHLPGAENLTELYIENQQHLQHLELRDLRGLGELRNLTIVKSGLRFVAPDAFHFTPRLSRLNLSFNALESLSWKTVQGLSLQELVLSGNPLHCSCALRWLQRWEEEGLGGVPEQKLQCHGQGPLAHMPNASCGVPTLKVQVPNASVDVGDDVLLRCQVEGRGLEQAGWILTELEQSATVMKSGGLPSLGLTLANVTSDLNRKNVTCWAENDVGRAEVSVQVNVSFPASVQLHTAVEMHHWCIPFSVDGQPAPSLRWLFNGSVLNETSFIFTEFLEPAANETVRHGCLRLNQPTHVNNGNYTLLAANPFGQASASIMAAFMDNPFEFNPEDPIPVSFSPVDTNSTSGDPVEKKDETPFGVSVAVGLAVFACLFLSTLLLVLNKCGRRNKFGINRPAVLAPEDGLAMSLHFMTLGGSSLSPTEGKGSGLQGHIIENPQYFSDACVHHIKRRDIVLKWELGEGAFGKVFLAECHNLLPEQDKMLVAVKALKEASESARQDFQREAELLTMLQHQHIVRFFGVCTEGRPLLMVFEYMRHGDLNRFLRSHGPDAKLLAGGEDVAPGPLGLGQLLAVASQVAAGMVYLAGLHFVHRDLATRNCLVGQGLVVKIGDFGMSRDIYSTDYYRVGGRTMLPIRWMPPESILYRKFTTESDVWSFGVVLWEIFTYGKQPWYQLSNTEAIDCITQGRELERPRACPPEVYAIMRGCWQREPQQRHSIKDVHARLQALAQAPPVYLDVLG
Source text: as §1, §2

[3] = biological target: T3, TRKC(G623R) (Homo sapiens, UniProt Q16288, G623R); assay: HTRF KinEASE-TK kinase activity inhibition assay, TRKC(G623R); settings: ATP 100 µM
T3 construct: purchased SignalChem N18-12CH-10
T3 sequence (Q16288 32-839 G623R): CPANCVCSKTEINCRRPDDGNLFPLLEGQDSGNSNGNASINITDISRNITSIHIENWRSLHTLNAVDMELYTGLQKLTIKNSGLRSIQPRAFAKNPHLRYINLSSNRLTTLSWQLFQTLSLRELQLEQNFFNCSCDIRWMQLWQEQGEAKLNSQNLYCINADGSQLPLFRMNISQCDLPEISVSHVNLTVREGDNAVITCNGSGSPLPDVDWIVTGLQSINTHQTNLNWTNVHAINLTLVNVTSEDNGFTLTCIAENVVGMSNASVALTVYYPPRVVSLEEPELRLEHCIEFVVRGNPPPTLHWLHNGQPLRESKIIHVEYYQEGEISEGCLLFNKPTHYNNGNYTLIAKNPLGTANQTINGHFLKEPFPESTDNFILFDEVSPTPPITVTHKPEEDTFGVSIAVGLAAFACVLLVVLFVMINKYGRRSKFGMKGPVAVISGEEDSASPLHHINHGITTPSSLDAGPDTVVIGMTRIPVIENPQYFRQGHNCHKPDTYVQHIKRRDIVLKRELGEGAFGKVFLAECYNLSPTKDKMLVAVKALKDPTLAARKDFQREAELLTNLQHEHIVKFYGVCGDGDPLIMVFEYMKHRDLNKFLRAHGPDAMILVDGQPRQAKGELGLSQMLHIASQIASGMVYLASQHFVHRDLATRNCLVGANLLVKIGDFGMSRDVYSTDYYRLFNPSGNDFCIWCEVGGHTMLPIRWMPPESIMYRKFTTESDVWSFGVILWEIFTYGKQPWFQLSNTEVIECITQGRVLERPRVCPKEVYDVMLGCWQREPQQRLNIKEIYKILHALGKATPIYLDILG
Source text: as §1
as §2, with “Then, an anti-phosphorylated tyrosine antibody coupled with a europium compound and streptavidin coupled with modified allophycocyanin XL665 were added to the reaction, and continuously incubated with shaking at room temperature for 1 hour.” left out, “Table 1 IC50 data of the compounds of the present invention on TRK enzyme activity inhibition” left out

[4] = biological target: T4, TRKB (Homo sapiens, UniProt Q16620); assay: HTRF KinEASE-TK kinase activity inhibition assay, TRKB; settings: ATP 10 µM
T4 construct: purchased Carna bioscience 08-187
T4 sequence (Q16620 32-822): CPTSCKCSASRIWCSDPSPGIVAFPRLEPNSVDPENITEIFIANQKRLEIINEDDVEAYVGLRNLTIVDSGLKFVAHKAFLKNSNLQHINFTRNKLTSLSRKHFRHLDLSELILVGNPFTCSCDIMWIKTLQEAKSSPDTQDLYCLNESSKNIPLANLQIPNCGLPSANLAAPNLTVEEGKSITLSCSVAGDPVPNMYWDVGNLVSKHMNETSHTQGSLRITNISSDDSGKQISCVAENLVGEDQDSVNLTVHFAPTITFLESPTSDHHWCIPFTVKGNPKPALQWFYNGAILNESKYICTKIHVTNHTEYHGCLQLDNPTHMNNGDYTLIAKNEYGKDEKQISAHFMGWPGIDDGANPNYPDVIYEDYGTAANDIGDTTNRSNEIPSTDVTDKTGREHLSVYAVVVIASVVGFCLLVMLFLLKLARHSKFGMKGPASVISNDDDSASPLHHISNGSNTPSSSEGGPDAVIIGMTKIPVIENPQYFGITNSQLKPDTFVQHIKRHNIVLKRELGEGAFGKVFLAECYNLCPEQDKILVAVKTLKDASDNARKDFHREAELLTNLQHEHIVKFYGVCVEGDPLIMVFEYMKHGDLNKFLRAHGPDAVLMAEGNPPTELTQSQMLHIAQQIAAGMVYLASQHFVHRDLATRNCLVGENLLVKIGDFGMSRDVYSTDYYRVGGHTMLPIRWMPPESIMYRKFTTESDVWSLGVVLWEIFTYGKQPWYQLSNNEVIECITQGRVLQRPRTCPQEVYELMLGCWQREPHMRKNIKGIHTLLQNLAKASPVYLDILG
Source text: as §1, §2

[5] = biological target: T5, TRKA(G667C) (Homo sapiens, UniProt P04629, G667C); assay: HTRF KinEASE-TK kinase activity inhibition assay, TRKA(G667C); settings: ATP 1 µM
T5 construct: purchased SignalChem N16-12CG-10
T5 sequence (P04629 33-796 G667C): as the sequence (P04629 33-796) above, with G635C counted along it
Source text: as §1, §2

[6] = biological target: T6, TRKA(G595R) (Homo sapiens, UniProt P04629, G595R); assay: HTRF KinEASE-TK kinase activity inhibition assay, TRKA(G595R); settings: ATP 7 µM
T6 construct: purchased SignalChem N16-12BG-10
T6 sequence (P04629 33-796 G595R): as the sequence (P04629 33-796) above, with G563R counted along it
Source text: as §1, §2

T1 sequence (Q16288 32-839): as the sequence (Q16288 32-839 G623R) above, with R592G counted along it

IC50 [1]: 0.52 nM | IC50 [2]: 0.98 nM | IC50 [3]: 7.4 nM | IC50 [4]: 0.36 nM | IC50 [5]: 4.6 nM | IC50 [6]: 4.97 nM
Structure (SMILES): C[C@H]1Nc2ccn3ncc(c3n2)C(=O)NCC2(C)Cc3cc(Cl)cc1c3O2 (stereo partly drawn) [Example 22, (3R)-6-chloro-3,11-dimethyl-10-oxa-2,13,17,18,21-pentaazapentacyclo[13.5.2.1^8,11.0^4,9.0^18,22]tricosa-1 (21),4,6,8,15(22),16,19-heptaen-14-one]
